Source: BindingDB's records for doi:10.1016/j.bmcl.2008.07.123 (Bristol-Myers Squibb, 2008)
pIC50: −log10 of the molar value.

Experiment: Antagonist activity at CCR2 in human PBMC assessed as MCP1-induced chemotaxis

Compound | pIC50
CCCCN1CCC(NC(=O)c2ccc(SC)cc2)C(NC(=O)CNC(=O)c2cc(C(F)(F)F)ccc2N)C1 (racemic) [(+/-)-2-amino-N-(2-(1-butyl-4-(4-(methylthio)benzamido)piperidin-3-ylamino)-2-oxoethyl)-5-(trifluoromethyl)benzamide] | 7.76
CCCCN1CCC(NCc2ccc(SC)cc2)C(NC(=O)CNC(=O)c2cc(C(F)(F)F)ccc2N)C1 (racemic) [(+/-)-2-amino-N-(2-(1-butyl-4-(4-(methylthio)benzylamino)piperidin-3-ylamino)-2-oxoethyl)-5-(trifluoromethyl)benzamide] | 7.72
CSc1ccc(C(=O)NC2CCN(C)CC2NC(=O)CNC(=O)c2cc(C(F)(F)F)ccc2N)cc1 (racemic) [(+/-)-2-amino-N-(2-(1-methyl-4-(4-(methylthio)benzamido)piperidin-3-ylamino)-2-oxoethyl)-5-(trifluoromethyl)benzamide] | 7.41
CSc1ccc(CNC2CCN(C)CC2NC(=O)CNC(=O)c2cc(C(F)(F)F)ccc2N)cc1 (racemic) [(+/-)-2-amino-N-(2-(1-methyl-4-(4-(methylthio)benzylamino)piperidin-3-ylamino)-2-oxoethyl)-5-(trifluoromethyl)benzamide] | 7.56
CCCN1CCC(NCc2ccc(SC)cc2)C(NC(=O)CNC(=O)c2cc(C(F)(F)F)ccc2N)C1 (racemic) [(+/-)-2-amino-N-(2-(4-(4-(methylthio)benzylamino)-1-propylpiperidin-3-ylamino)-2-oxoethyl)-5-(trifluoromethyl)benzamide] | 8.27

Second part, the compound after the results:

pIC50 | Compound
6.55 | CSc1ccc(CNC2CCNCC2NC(=O)CNC(=O)c2cc(C(F)(F)F)ccc2N)cc1 (racemic) [(+/-)-2-amino-N-(2-(4-(4-(methylthio)benzylamino)piperidin-3-ylamino)-2-oxoethyl)-5-(trifluoromethyl)benzamide]
7.60 | CCCN1CCC(NC(=O)c2ccc(SC)cc2)C(NC(=O)CNC(=O)c2cc(N)cc(C(F)(F)F)c2)C1 (racemic) [(+/-)-3-amino-N-(2-(4-(4-(methylthio)benzamido)-1-propylpiperidin-3-ylamino)-2-oxoethyl)-5-(trifluoromethyl)benzamide]
7.59 | CCCN1CCC(NCc2ccc(SC)cc2)C(NC(=O)CNC(=O)c2cc(N)cc(C(F)(F)F)c2)C1 (racemic) [(+/-)-3-amino-N-(2-(4-(4-(methylthio)benzylamino)-1-propylpiperidin-3-ylamino)-2-oxoethyl)-5-(trifluoromethyl)benzamide]
8.32 | CCCN1CCC(NCc2ccc(SC)cc2)C(NC(=O)CNC(=O)c2cc(C(F)(F)F)ccc2NC(=O)N2CCCC2)C1 (racemic) [(+/-)-N-(2-(2-(4-(4-(methylthio)benzylamino)-1-propylpiperidin-3-ylamino)-2-oxoethylcarbamoyl)-4-(trifluoromethyl)phenyl)pyrrolidine-1-carboxamide]
8.10 | CCCN1CCC(NCc2ccc(SC)cc2)C(NC(=O)CNC(=O)c2cc(C(F)(F)F)ccc2NC(=O)NC)C1 (racemic) [(+/-)-N-(2-(4-(4-(methylthio)benzylamino)-1-propylpiperidin-3-ylamino)-2-oxoethyl)-2-(3-methylureido)-5-(trifluoromethyl)benzamide]
